Measurements from PubChem BioAssay (NCI).
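How tested: cells in 96-well plates exposed to compound for 48 hours at five concentrations. TGI: total growth inhibition.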

Key:
Assay in all cases: inhibition of tumour cell growth, NCI panel, 48 h
MALME-3M melanoma = system: MALME-3M melanoma
EKVX NSCLC = system: EKVX NSCLC
OVCAR-3 ovarian = system: OVCAR-3 ovarian
MCF7 breast = system: MCF7 breast
SW-620 colon = system: SW-620 colon
UO-31 renal = system: UO-31 renal
SK-MEL-5 melanoma = system: SK-MEL-5 melanoma
SNB-19 CNS = system: SNB-19 CNS
MDA-MB-435 = system: MDA-MB-435
A549 NSCLC = system: A549 NSCLC

SMILES | TGI (MALME-3M melanoma) | TGI (EKVX NSCLC) | TGI (OVCAR-3 ovarian) | TGI (MCF7 breast) | TGI (SW-620 colon) | TGI (UO-31 renal) | TGI (SK-MEL-5 melanoma) | TGI (SNB-19 CNS) | TGI (MDA-MB-435) | TGI (A549 NSCLC)
CC1=CC(C)(C)Nc2ccc(CSc3ccccc3)cc21 | 47.5 µM | 59.9 µM | 39.5 µM | 60.9 µM | > 100 µM | 50.8 µM | 32.9 µM | > 100 µM | 63.4 µM | 51.4 µM
O=C1C(Cl)=C(N2CCN(c3ccccn3)CC2)C(=O)c2ncccc21 | 3.21 µM | 24.4 µM | 3.21 µM | 3.21 µM | 3.79 µM | 3.3 µM | 4.22 µM | 25 µM | 3.17 µM | 19.5 µM
CC(C)(C)NC(=O)C12C3C4C1C1C2C3C41C(=O)NC(C)(C)C (centres undefined) |  | > 100 µM | > 100 µM | > 100 µM | > 100 µM | > 100 µM | > 100 µM | > 100 µM | > 100 µM | > 100 µM
O=C(O)CCC(NC(=O)c1ccc(CNc2nc3ccccc3nc2C(=O)O)cc1)C(=O)O (centres undefined) | > 100 µM | > 100 µM | > 100 µM | > 100 µM | > 100 µM | > 100 µM | > 100 µM | > 100 µM | > 100 µM | > 100 µM
COc1ccc(Nc2nc3ccccc3nc2C(=O)O)cc1OC | > 100 µM | > 100 µM | > 100 µM | > 100 µM | > 100 µM | 97.8 µM | > 100 µM | > 100 µM | > 100 µM | > 100 µM
C[N+](C)([O-])Cc1cc(-c2ccccc2)ccc1O | > 100 µM | > 100 µM | > 100 µM |  | > 100 µM | > 100 µM | > 100 µM | > 100 µM | > 100 µM | > 100 µM
O=C(N/N=C(/COc1cccc(Cl)c1)N=Cc1cccnc1)c1ccncc1 | > 100 µM | > 100 µM | > 100 µM | > 100 µM | > 100 µM |  |  | > 100 µM | > 100 µM | > 100 µM
Cn1c(-c2ccc(N=NNc3ccc(-c4n[nH]c(=S)n4C)cc3)cc2)n[nH]c1=S | > 100 µM | > 100 µM | > 100 µM | > 100 µM | > 100 µM |  | 48.1 µM | 70.2 µM | > 100 µM | > 100 µM
COC(=O)c1c(C(=O)OC)c2c3ccccc3n(C)c2c2c1c1ccccc1n2C | > 100 µM | > 100 µM |  | > 100 µM | > 100 µM | > 100 µM | > 100 µM | 83.3 µM | > 100 µM | > 100 µM
COc1ccc(/C=C2/CCS(=O)(=O)c3ccc(C)cc3C2=O)cc1OC |  | 40.3 µM | > 100 µM | > 100 µM | > 100 µM | 20.1 µM |  | 33.3 µM | 71.6 µM | > 100 µM
C=CCc1cccc(/C=N\N=C(/N)NO)c1O | 70.9 µM | 17.7 µM | > 25.2 µM | 9.82 µM | > 100 µM | 6.69 µM | 20.7 µM | > 94.4 µM |  | 29.1 µM
COc1ncnc2c1cnn2Cc1cn(CCCCO)nn1 | > 100 µM | > 100 µM | > 100 µM | > 100 µM | > 100 µM | > 100 µM | > 100 µM | > 100 µM | > 100 µM | > 100 µM
COc1ccc(-c2nc(-c3cnccn3)n(COCCO)n2)cc1 |  |  | > 100 µM | > 100 µM | > 100 µM | > 100 µM | > 100 µM | > 100 µM | > 100 µM | > 100 µM
CCCOC1OC(CS(=O)(=O)O)C(O)C(O)C1O (centres undefined) | > 100 µM |  | > 100 µM | > 100 µM | > 100 µM | > 100 µM | > 100 µM | > 100 µM | > 100 µM | 
BrCC(Br)(c1ccccc1)c1ccccc1-c1cc(-c2ccccc2)cc(-c2ccccc2)n1 (centres undefined) | 16.4 µM | > 100 µM |  | 4.12 µM | 14.2 µM | 26.8 µM | 3.82 µM | 31.9 µM | 4.63 µM | 25.5 µM
COc1cc2c(c(OC(C)=O)c1OC(C)=O)-c1ccc(SC)c(=O)cc1C(NC(C)=O)CC2 (centres undefined) | > 100 µM | > 100 µM | 2.43 µM |  | > 100 µM | > 100 µM | 3.46 µM | > 100 µM |  | > 100 µM
O=C(NNC(=S)NCc1ccccc1)C12CC3CC(CC(C3)C1)C2 | > 100 µM |  | > 100 µM | > 100 µM | > 100 µM | > 100 µM |  | > 100 µM | > 100 µM | 
CC[C@@H](/C=C\CCC1(C[C@@H](N)CCC=C(C)C)OCCO1)O[Si](C(C)C)(C(C)C)C(C)C |  | 29.3 µM | 38.8 µM | 30.2 µM | 51.6 µM | 32.3 µM | 32.7 µM | 32.8 µM | 34.9 µM | 33.1 µM
O=C(/C=C/c1ccc(O)c(O)c1)NCCc1ccc(-c2ccccc2)cc1 | 53.9 µM | > 100 µM | 65.7 µM | > 100 µM | > 100 µM | > 100 µM | > 100 µM | > 100 µM |  | > 100 µM
N#CCCN(CCC#N)c1ccc(C(N=Nc2ccc(Cl)cc2)=Nc2ccc(F)cc2)cc1 |  | > 100 µM | > 100 µM | > 100 µM | > 100 µM | > 100 µM | > 100 µM | > 100 µM | > 100 µM | > 100 µM
NC(=S)NS(=O)(=O)c1ccc(F)cc1F | > 100 µM | > 100 µM | > 100 µM | > 100 µM | > 100 µM |  | > 100 µM | > 100 µM | > 100 µM | > 100 µM
COC(=O)[C@@H]1Cc2cc(O)c(O)cc2C2(CCN(C)CC2)O1 | > 10 µM | > 10 µM | > 10 µM | > 10 µM | > 10 µM |  | > 10 µM | > 10 µM | > 10 µM | > 10 µM
CN(C)c1ccc(C2ON=C(c3ccccc3)N2C23CC4CC(CC(C4)C2)C3)cc1 (centres undefined) | > 10 µM | > 10 µM | > 10 µM |  | > 10 µM |  | > 10 µM | > 10 µM | > 10 µM | > 10 µM
